The test deals with L1210 leukemia ip in BDF1 mice, survival T/C. Nature of the test: NCI In Vivo Anticancer Drug Screen. Data for tumor model L1210 Leukemia (intraperitoneal) in B6D2F1 (BDF1) mice. Particulars: higher = longer survival. Summed up:
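Ratio derived from survival: compound-dosed mice over vehicle-dosed mice, all bearing a transplantable tumor.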

[1] abbreviates: endpoint: mean survival time, dose: 1.0 mg/kg/injection, schedule: Q01DX Z (ip), vehicle: saline.
Setting [2] is: endpoint: mean survival time, dose: 25.0 mg/kg/injection, schedule: Q01DX009 (ip), vehicle: saline.
Setting [3] is: endpoint: mean survival time, dose: 50.0 mg/kg/injection, schedule: Q01DX009 (ip), vehicle: saline.
[4] abbreviates: endpoint: mean survival time, dose: 100.0 mg/kg/injection, schedule: Q01DX009 (ip), vehicle: saline.
The mark [5] stands for this setting: endpoint: mean survival time, dose: 100.0 mg/kg/injection, schedule: Q04DX003 (ip), vehicle: saline with Tween-80.
[6] abbreviates: endpoint: mean survival time, dose: 200.0 mg/kg/injection, schedule: Q04DX003 (ip), vehicle: saline with Tween-80.
The mark [7] stands for this setting: endpoint: mean survival time, dose: 400.0 mg/kg/injection, schedule: Q04DX003 (ip), vehicle: saline with Tween-80.

Several values for one entry are separate records, joined by “and”; a condition that tells them apart may be missing. Identical values can stand only once. Inconclusive results and toxic doses are left out.

Regarding `COC(COC(N)=O)C1=C(N2CC2)C(=O)C(C)=C(N2CC2)C1=O` (stereo unspecified), the T/C is 107 % of control (endpoint: mean survival time, dose: 0.03 mg/kg/injection, schedule: Q01DX Z (ip), vehicle: saline); 115 % of control (endpoint: mean survival time, dose: 0.06 mg/kg/injection, schedule: Q01DX Z (ip), vehicle: saline); 158 % of control (endpoint: mean survival time, dose: 0.12 mg/kg/injection, schedule: Q01DX009 (ip), vehicle: Klucel (hydroxypropylcellulose) (HPC)); 115 % of control (endpoint: mean survival time, dose: 0.12 mg/kg/injection, schedule: Q01DX Z (ip), vehicle: saline); 113 % of control (endpoint: mean survival time, dose: 0.25 mg/kg/injection, schedule: Q01DX009 (ip), vehicle: Klucel (hydroxypropylcellulose) (HPC)); 159 % of control (endpoint: mean survival time, dose: 0.25 mg/kg/injection, schedule: Q01DX Z (ip), vehicle: saline). The T/C is 207 % of control (endpoint: mean survival time, dose: 0.5 mg/kg/injection, schedule: Q01DX009 (ip), vehicle: saline); 157 % of control (endpoint: mean survival time, dose: 0.5 mg/kg/injection, schedule: Q01DX Z (ip), vehicle: saline); 194 % of control (endpoint: mean survival time, dose: 0.5 mg/kg/injection, schedule: Q04DX003 (ip), vehicle: Klucel (hydroxypropylcellulose) (HPC)); 172 % of control (endpoint: mean survival time, dose: 0.5 mg/kg/injection, schedule: Q04DX003 (ip), vehicle: saline); 160 % of control (endpoint: mean survival time, dose: 0.5 mg/kg/injection, schedule: Q08DX002 (ip), vehicle: saline); 166 % of control (endpoint: mean survival time, dose: 1.0 mg/kg/injection, schedule: Q01DX001 (ip), vehicle: saline with Tween-80). Also, the T/C is 171 % of control (endpoint: mean survival time, dose: 1.0 mg/kg/injection, schedule: Q01DX001 (ip), vehicle: saline); 201 % of control (endpoint: mean survival time, dose: 1.0 mg/kg/injection, schedule: Q01DX009 (ip), vehicle: saline); 90 % of control under setting [1]; 188 % of control (endpoint: mean survival time, dose: 1.0 mg/kg/injection, schedule: Q04DX003 (ip), vehicle: saline); 233 % of control (endpoint: mean survival time, dose: 1.0 mg/kg/injection, schedule: Q08DX002 (ip), vehicle: saline); 288 % of control (endpoint: mean survival time, dose: 2.0 mg/kg/injection, schedule: Q01DX001 (ip), vehicle: saline with Tween-80). Also, the T/C by setting is: (endpoint: mean survival time, dose: 2.0 mg/kg/injection, schedule: Q01DX001 (ip), vehicle: saline) 360 % of control; (endpoint: mean survival time, dose: 2.0 mg/kg/injection, schedule: Q01DX009 (ip), vehicle: Klucel (hydroxypropylcellulose) (HPC)) 92 % of control; (endpoint: mean survival time, dose: 2.0 mg/kg/injection, schedule: Q04DX003 (ip), vehicle: Klucel (hydroxypropylcellulose) (HPC)) 98 % of control; (endpoint: mean survival time, dose: 2.0 mg/kg/injection, schedule: Q04DX003 (ip), vehicle: saline) 105 % of control; (endpoint: mean survival time, dose: 2.0 mg/kg/injection, schedule: Q08DX002 (ip), vehicle: saline) 159 % of control; (endpoint: mean survival time, dose: 4.0 mg/kg/injection, schedule: Q01DX001 (ip), vehicle: saline with Tween-80) 90 % of control. For the same molecule, the T/C (endpoint: median survival time, dose: 0.5 mg/kg/injection, schedule: Q01DX001 (ip), vehicle: saline) is 100 % of control; the T/C (endpoint: median survival time, dose: 1.0 mg/kg/injection, schedule: Q01DX001 (ip), vehicle: saline) is 109 % of control; the T/C (endpoint: median survival time, dose: 2.0 mg/kg/injection, schedule: Q01DX001 (ip), vehicle: saline) was 114 % of control.
Take `CN(C)[C@@H]1C(=O)C(C(=O)NCNC(CO)(CO)CO)=C(O)[C@@]2(O)C(=O)C3=C(O)c4c(O)cccc4[C@@](C)(O)[C@H]3C[C@@H]12`: the T/C was 100 % of control under setting [1]; 100 % of control (endpoint: mean survival time, dose: 4.0 mg/kg/injection, schedule: Q01DX Z (ip), vehicle: saline); 108 % of control (endpoint: mean survival time, dose: 14.0 mg/kg/injection, schedule: Q01DX Z (ip), vehicle: saline); 102 % of control (endpoint: mean survival time, dose: 15.0 mg/kg/injection, schedule: Q01DX Z (ip), vehicle: saline); 104 % of control under setting [2]; 94 % of control (endpoint: mean survival time, dose: 28.0 mg/kg/injection, schedule: Q01DX Z (ip), vehicle: saline). Moreover, the T/C was 97 % of control and 101 % of control under setting [3]; 100 % of control (endpoint: mean survival time, dose: 60.0 mg/kg/injection, schedule: Q01DX Z (ip), vehicle: saline); 93 % of control and 95 % of control (endpoint: mean survival time, dose: 100.0 mg/kg/injection, schedule: Q01DX001 (ip), vehicle: saline); 98 % of control and 97 % of control under setting [4]; 92 % of control (endpoint: mean survival time, dose: 100.0 mg/kg/injection, schedule: Q04DX003 (ip), vehicle: acetone); 93 % of control (endpoint: mean survival time, dose: 112.0 mg/kg/injection, schedule: Q01DX Z (ip), vehicle: saline). In addition, the T/C is 113 % of control (endpoint: mean survival time, dose: 120.0 mg/kg/injection, schedule: Q01DX Z (ip), vehicle: saline); 108 % of control and 106 % of control (endpoint: mean survival time, dose: 200.0 mg/kg/injection, schedule: Q01DX001 (ip), vehicle: saline); 100 % of control and 94 % of control (endpoint: mean survival time, dose: 200.0 mg/kg/injection, schedule: Q04DX003 (ip), vehicle: acetone); 115 % of control (endpoint: mean survival time, dose: 224.0 mg/kg/injection, schedule: Q01DX Z (ip), vehicle: saline); 111 % of control (endpoint: mean survival time, dose: 240.0 mg/kg/injection, schedule: Q01DX Z (ip), vehicle: saline); 96 % of control (endpoint: mean survival time, dose: 266.0 mg/kg/injection, schedule: Q01DX009 (ip), vehicle: saline). The T/C was 104 % of control and 92 % of control (endpoint: mean survival time, dose: 400.0 mg/kg/injection, schedule: Q01DX001 (ip), vehicle: saline); 91 % of control and 90 % of control (endpoint: mean survival time, dose: 400.0 mg/kg/injection, schedule: Q04DX003 (ip), vehicle: acetone).
As to `NC1=NNC(N)=NN1`, the T/C (endpoint: mean survival time, dose: 12.5 mg/kg/injection, schedule: Q01DX009 (ip), vehicle: saline) was 93 % of control; the T/C under setting [2] is 101 % of control; the T/C under setting [3] is 100 % of control and 107 % of control; the T/C under setting [4] was 92 % of control.
`O=Cc1ccc(OC(=O)Nc2ccc([N+](=O)[O-])cc2)cc1`: the T/C was 92 % of control (endpoint: mean survival time, dose: 100.0 mg/kg/injection, schedule: Q01DX009 (ip), vehicle: Klucel (hydroxypropylcellulose) (HPC)); 90 % of control (endpoint: mean survival time, dose: 200.0 mg/kg/injection, schedule: Q01DX009 (ip), vehicle: Klucel (hydroxypropylcellulose) (HPC)); 95 % of control (endpoint: mean survival time, dose: 400.0 mg/kg/injection, schedule: Q01DX009 (ip), vehicle: Klucel (hydroxypropylcellulose) (HPC)).
`CC(=O)OC1CC(OC2C(O)CC(OC3C(O)CC(OC4CCC5(C)C(CCC6C5CCC5(C)C(C7=CC(=O)OC7)C(O)CC65O)C4)OC3C)OC2C)OC(C)C1OC1OC(CO)C(O)C(O)C1O` (stereo unspecified): the T/C by setting is: (endpoint: mean survival time, dose: 12.5 mg/kg/injection, schedule: Q04DX003 (ip), vehicle: Klucel (hydroxypropylcellulose) (HPC)) 97 % of control; (endpoint: mean survival time, dose: 25.0 mg/kg/injection, schedule: Q01DX001 (ip), vehicle: carboxymethylcellulose (CMC)) 111 % of control; (endpoint: mean survival time, dose: 25.0 mg/kg/injection, schedule: Q04DX003 (ip), vehicle: Klucel (hydroxypropylcellulose) (HPC)) 103 % of control; (endpoint: mean survival time, dose: 50.0 mg/kg/injection, schedule: Q01DX001 (ip), vehicle: carboxymethylcellulose (CMC)) 105 % of control; (endpoint: mean survival time, dose: 50.0 mg/kg/injection, schedule: Q04DX003 (ip), vehicle: Klucel (hydroxypropylcellulose) (HPC)) 112 % of control; (endpoint: mean survival time, dose: 100.0 mg/kg/injection, schedule: Q04DX003 (ip), vehicle: Klucel (hydroxypropylcellulose) (HPC)) 97 % of control.
Take `CCCCCCCCCCCCCCCCCC[Se]CCCCCCCCCCCCCCCCCC`: the T/C runs as follows: under setting [5], 88 % of control; under setting [6], 92 % of control; under setting [7], 93 % of control.
As to `Cc1cnc(-n2nc(-c3ccccc3)c3c2-c2ccccc2C3)nc1-c1ccccc1O`, the T/C (endpoint: mean survival time, dose: 6.25 mg/kg/injection, schedule: Q01DX009 (ip), vehicle: Klucel (hydroxypropylcellulose) (HPC)) is 91 % of control and the T/C (endpoint: mean survival time, dose: 12.5 mg/kg/injection, schedule: Q01DX009 (ip), vehicle: Klucel (hydroxypropylcellulose) (HPC)) was 87 % of control.
For `CCOc1nc(=O)n(CC(=O)c2ccc(Cl)s2)cc1F`, the T/C by setting is: (endpoint: mean survival time, dose: 100.0 mg/kg/injection, schedule: Q01DX009 (ip), vehicle: saline with Tween-80) 105 % of control; under setting [5], 103 % of control; (endpoint: mean survival time, dose: 200.0 mg/kg/injection, schedule: Q01DX009 (ip), vehicle: saline with Tween-80) 90 % of control; under setting [6], 103 % of control; (endpoint: mean survival time, dose: 400.0 mg/kg/injection, schedule: Q01DX009 (ip), vehicle: saline with Tween-80) 86 % of control; under setting [7], 94 % of control.
